Active and inactive are the calls of the source. The rule behind the calls is not given here.
Experiments:
NCI-H522 [1] = experiment: Antitumor activity against human NCI-H522 cells xenografted in BALB/c nude mouse assessed as reduction of tumor growth by measuring T/C ratio at 50 mg/kg, iv administered every 4 days for 21 days; type: functional; details: time 4 day
[2] = test system: Panel NCI-60 (60 carcinoma cell lines); experiment: Anticancer activity against human Panel NCI-60 (60 carcinoma cell lines) line assessed as cell growth inhibition measured after 48 hrs by SRB assay; type: functional
NCI-H522 [3] = experiment: Induction of apoptosis in human NCI-H522 cells assessed as viable cells at 0.5 uM incubated for 48 hrs by Annexin V-FITC/PI staining based flow cytometric analysis (reference value: 82.4%); type: functional; details: read-out: Activity
NCI-H460 [4] = experiment: Induction of apoptosis in human NCI-H460 cells assessed as effect on caspase 9 level at 1 uM measured for 48 hrs by western blot analysis; type: functional, cell-based
NCI-H522 [5] = experiment: Induction of apoptosis in human NCI-H522 cells assessed as viable cells at 5 uM incubated for 48 hrs by Annexin V-FITC/PI staining based flow cytometric analysis (reference value: 82.4%); type: functional; details: read-out: Activity
NCI-H522 [6] = experiment: Induction of apoptosis in human NCI-H522 cells assessed as early apoptotic cells at 5 uM incubated for 48 hrs by Annexin V-FITC/PI staining based flow cytometric analysis (Rvb =7.01 %); type: functional
[7] = Toxicity in BALB/c nude mouse xenografted with human NCI-H522 cells assessed as change in body weight at 12.5 to 50 mg/kg, iv administered every 4 days for 21 days; type: organism-based; details: in vivo, 96 h, dose 12.5-50 mg/kg, time 4 day
LOX IMVI = experiment: Anticancer activity against human LOX IMVI cells assessed as cell growth inhibition measured after 48 hrs by SRB assay; type: functional
NCI-H522 [8] = experiment: Induction of apoptosis in human NCI-H522 cells assessed as apoptotic rate at 0.05 to 5 uM incubated for 48 hrs by AnnexinV-FITC/PI staining based flow cytometric analysis; type: functional; details: dose 0.05-5 µM
NCI-H522 [9] = experiment: Induction of mitochondrial membrane potential depolarization in human NCI-H522 cells measured after 48 hrs by JC-1 staining based flow cytometry analysis; type: functional, cell-based; details: dose 0.05-5 µM, DDE = dose-dependent effect
NCI-H522 [10] = experiment: Induction of apoptosis in human NCI-H522 cells assessed as early apoptotic cells at 0.05 uM incubated for 48 hrs by Annexin V-FITC/PI staining based flow cytometric analysis (Rvb =7.01 %); type: functional
NCI-H522 [11] = experiment: Induction of apoptosis in human NCI-H522 cells assessed as necrotic cells at 5 uM incubated for 48 hrs by Annexin V-FITC/PI staining based flow cytometric analysis (Rvb =0.64 %); type: functional
[12] = AUC (0 to t) in BALB/c nude mouse at 1 mg/kg, iv by LC-MS/MS analysis; type: ADME, organism-based; parameters: dose 1 mg/kg, route iv; details: in vivo
NCI-H460 [13] = experiment: Induction of apoptosis in human NCI-H460 cells assessed as effect on cleavage of PARP at 1 uM measured for 48 hrs by western blot analysis; type: functional, cell-based
NCI-H460 [14] = experiment: Induction of apoptosis in human NCI-H460 cells assessed as effect on caspase 7 level at 1 uM measured for 48 hrs by western blot analysis; type: functional, cell-based
786-0 = experiment: Anticancer activity against human 786-0 cells assessed as cell growth inhibition measured after 48 hrs by SRB assay; type: functional
NCI-H522 [15] = experiment: Induction of apoptosis in human NCI-H522 cells assessed as necrotic cells at 0.5 uM incubated for 48 hrs by Annexin V-FITC/PI staining based flow cytometric analysis (Rvb =0.64 %); type: functional
NCI-H522 [16] = experiment: Antitumor activity against human NCI-H522 cells xenografted in iv dosed BALB/c nude mouse assessed as inhibition of tumor growth administered every 4 days for 21 days; type: functional, organism-based; details: dose 12.5-50 mg/kg, time 4.0 day, DDE = dose-dependent effect
NCI-H522 [17] = experiment: Antitumor activity against human NCI-H522 cells xenografted in BALB/c nude mouse assessed as reduction of tumor weight at 50 mg/kg, iv administered every 4 days for 21 days; type: functional; parameters: scale not given: the % may be the effect or the level left; details: time 4 day
[18] = Cmax in BALB/c nude mouse at 1 mg/kg, iv by LC-MS/MS analysis; type: ADME, organism-based; parameters: dose 1 mg/kg, route iv; details: in vivo
HCT-116 = experiment: Anticancer activity against human HCT-116 cells assessed as cell growth inhibition measured after 48 hrs by SRB assay; type: functional
[19] = Inhibition of tubulin polymerization […] assessed as microtubule assembly measured every 1 min for 60 mins by fluorimeter analysis
NCI-H522 [20] = experiment: Induction of apoptosis in human NCI-H522 cells assessed as late apoptotic cells at 0.05 uM incubated for 48 hrs by Annexin V-FITC/PI staining based flow cytometric analysis (Rvb =9.14 %); type: functional
SF-295 = experiment: Anticancer activity against human SF-295 cells assessed as cell growth inhibition measured after 48 hrs by SRB assay; type: functional
NCI-H460 [21] = experiment: Induction of cell cycle arrest in human NCI-H460 cells assessed as accumulation at S phase at 20 nM incubated for 48 hrs by PI staining based flow cytometric analysis; type: functional
A549 = experiment: Anticancer activity against human A549 cells assessed as cell growth inhibition measured after 48 hrs by SRB assay; type: functional
NCI-H460 [22] = experiment: Downregulation of c-Myc protein expression level in human NCI-H460 cells at 20 nM incubated for 0.5 to 6 hrs by western blot analysis; type: functional, cell-based; details: time 0.5-6 hrs
[23] = Cmax in BALB/c nude mouse at 10 mg/kg, po by LC-MS/MS analysis; type: ADME, organism-based; parameters: dose 10 mg/kg, route po; details: in vivo
NCI-H522 [24] = experiment: Induction of apoptosis in human NCI-H522 cells assessed as necrotic cells at 0.05 uM incubated for 48 hrs by Annexin V-FITC/PI staining based flow cytometric analysis (Rvb =0.64 %); type: functional
NCI-H522 [25] = experiment: Induction of apoptosis in human NCI-H522 cells assessed as early apoptotic cells at 0.5 uM incubated for 48 hrs by Annexin V-FITC/PI staining based flow cytometric analysis (Rvb =7.01 %); type: functional
[26] = Oral bioavailability in BALB/c nude mouse at 10 mg/kg by LC-MS/MS analysis; type: ADME, organism-based; details: in vivo
[27] = AUC (0 to t) in BALB/c nude mouse at 10 mg/kg, po by LC-MS/MS analysis; type: ADME, organism-based; parameters: dose 10 mg/kg, route po; details: in vivo
NCI-H460 [28] = experiment: Inhibition of polyribosome in human NCI-H460 cells assessed as increase in 80S ribosome at 200 nM incubated for 1 hr in presence of cycloheximide; type: functional, cell-based
NCI-H522 [29] = experiment: Induction of apoptosis in human NCI-H522 cells assessed as viable cells at 0.05 uM incubated for 48 hrs by Annexin V-FITC/PI staining based flow cytometric analysis (reference value: 82.4%); type: functional; details: read-out: Activity
[30] = Half life in BALB/c nude mouse at 10 mg/kg, po by LC-MS/MS analysis; type: ADME, organism-based; details: in vivo
NCI-H460 [31] = experiment: Induction of apoptosis in human NCI-H460 cells assessed as effect on caspase 3 level at 1 uM measured for 48 hrs by western blot analysis; type: functional, cell-based
NCI-H522 [32] = experiment: Induction of apoptosis in human NCI-H522 cells assessed as late apoptotic cells at 0.5 uM incubated for 48 hrs by Annexin V-FITC/PI staining based flow cytometric analysis (Rvb =9.14 %); type: functional
NCI-H522 [33] = experiment: Induction of apoptosis in human NCI-H522 cells assessed as late apoptotic cells at 5 uM incubated for 48 hrs by Annexin V-FITC/PI staining based flow cytometric analysis (Rvb =9.14 %); type: functional

AUC(0-t) [12]: 439 ng·h/mL
GI50 (786-0): < 5 nM
Cmax [18]: 1540 ng/mL
GI50 (HCT-116): < 5 nM
IC50 [19]: 10100 nM
GI50 (A549): < 5 nM
Cmax [23]: 42.6 ng/mL
bioavailability [26]: 1.53%
AUC(0-t) [27]: 66.5 ng·h/mL
half-life [30]: 1.4 h
Compound: CCN(CC)C(=O)C[C@H]1C(=O)Nc2cc(NC(=O)c3cc(OC)c(OC)c(OC)c3Br)c(Oc3cc(C)cc(C)c3)cc2C(=O)N1C
T/C (NCI-H522 [1]): 13.6%
GI50 [2]: < 5 nM
viability at 0.5 µM (NCI-H522 [3]): 28.4%
Activity (NCI-H460 [4]): Active
viability at 5 µM (NCI-H522 [5]): 13.5%
Activity (NCI-H522 [6]): 19.8%
Activity [7]: < 10%
GI50 (LOX IMVI): < 5 nM
Activity (NCI-H522 [8]): 35%
Activity (NCI-H522 [9]): Dde
Activity (NCI-H522 [10]): 7.75%
Activity (NCI-H522 [11]): 7.64%
Activity (NCI-H460 [13]): Active
Activity (NCI-H460 [14]): Active
Activity (NCI-H522 [15]): 4.6%
Activity (NCI-H522 [16]): Dde
Activity (NCI-H522 [17]): 88.7%
Activity (NCI-H522 [20]): 25.2%
GI50 (SF-295): < 5 nM
Activity (NCI-H460 [21]): Active
Activity (NCI-H460 [22]): Active
Activity (NCI-H522 [24]): 1.25%
Activity (NCI-H522 [25]): 14.5%
Activity (NCI-H460 [28]): Active
viability at 0.05 µM (NCI-H522 [29]): 65.8%
Activity (NCI-H460 [31]): Active
Activity (NCI-H522 [32]): 52.4%
Activity (NCI-H522 [33]): 59%
